Earlier results in patent US5614503A, “Amphipathic nucleic acid transporter” (Aronex Pharmaceuticals, Inc., priority 1995, dated 1997).

Assays:
animal cells = conditions: some types of animal cells; Felgner, 1990
[1] = Moore et al., 1993

| SMILES | effect on uptake kinetics of nucleic acids (animal cells) | antibiotic activity [1] |
| --- | --- | --- |
| CCCCCCCC/C=C\CCCCCCCCOCC(C[N+](C)(C)C)OCCCCCCCC/C=C\CCCCCCCC (centres unmarked) [DOTMA] | can improve the uptake kinetics of nucleic acids | – |
| CC(C)[C@@H](CC[C@@H](C)[C@H]1CC[C@H]2[C@@H]3[C@H](O)C[C@H]4C[C@@H](NCCCNCCCCN)CC[C@]4(C)[C@H]3CC[C@]12C)OS(=O)(=O)O [squalamine] | – | broad-spectrum antibiotic |
